Target: G-protein coupled receptor 84 (Homo sapiens, UniProt Q9NQS5)
Sequence (Q9NQS5 whole entry): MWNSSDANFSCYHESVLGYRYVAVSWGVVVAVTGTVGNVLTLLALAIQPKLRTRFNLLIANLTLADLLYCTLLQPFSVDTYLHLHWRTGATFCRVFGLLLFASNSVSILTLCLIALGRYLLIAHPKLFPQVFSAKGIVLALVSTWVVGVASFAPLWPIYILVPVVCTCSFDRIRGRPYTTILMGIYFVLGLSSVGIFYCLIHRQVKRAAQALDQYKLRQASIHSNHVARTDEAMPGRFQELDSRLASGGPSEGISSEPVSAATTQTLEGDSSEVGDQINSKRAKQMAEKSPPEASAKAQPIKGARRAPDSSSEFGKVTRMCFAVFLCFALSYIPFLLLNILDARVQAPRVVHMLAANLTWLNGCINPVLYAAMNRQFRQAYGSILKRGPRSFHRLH
Description: Antagonist activity at human GPR84 expressed in HEK293 cells co-expressing Galpha16 assessed as inhibition of 6-OAU-induced calcium response

For Cc1cc2ccccc2c2c1OP(=O)(O)Oc1c(C)cc3ccccc3c1-2, the IC50 was > 100 µM.

From ChEMBL document CHEMBL5500419, “Discovery of GPR84 Fluorogenic Probes Based on a Novel Antagonist for GPR84 Bioimaging” (J Med Chem, 2024)
